Measurements: PMC10442399, “Crystal structure and functional implications of cyclic di-pyrimidine-synthesizing cGAS/DncV-like nucleotidyltransferases” (Nature Communications, 2023)
“Also recorded” adds a separate entry of the source. Where two headings read alike, the source gives them in different places.

Experiments:
EfCdnE = target: T1, EfCdnE (Enterococcus faecalis, UniProt P0DX98); experiment: ITC analysis of nucleotide binding to wild-type EfCdnE
T1 construct: Full-length gene fragments encoding ClCdnE from Cecembia lonarensis; made in house; host or cells: E. coli BL21 (DE3)
T1 sequence (P0DX98 whole entry, the tested form may be a part): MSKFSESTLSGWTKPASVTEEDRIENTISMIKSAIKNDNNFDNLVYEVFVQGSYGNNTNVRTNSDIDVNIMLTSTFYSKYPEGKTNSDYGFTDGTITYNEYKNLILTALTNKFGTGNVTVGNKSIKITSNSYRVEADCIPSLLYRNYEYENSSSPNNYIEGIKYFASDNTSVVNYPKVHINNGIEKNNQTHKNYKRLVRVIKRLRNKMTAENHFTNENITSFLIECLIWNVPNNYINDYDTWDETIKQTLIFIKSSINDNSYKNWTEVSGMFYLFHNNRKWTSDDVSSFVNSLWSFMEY
Description: (§1) EfCdnE was chosen as the sample to evaluate the affinity of this class of enzyme to different nucleotides by isothermal titration calorimetry (ITC), using nano-ITC (TA Instruments). EfCdnE was dialyzed overnight against an assay buffer containing 20 mM Tris pH 8.0, 150 mM NaCl. The nucleotides to be tested (UTP, CTP, ATP and GTP, and their analogs) were each dissolved in the same buffer. Titration was carried out by 20 sequential injections of the nucleotide at a concentration of 250 μM at 3-min intervals to 50 μM EfCdnE, with a stirring speed of 300 rpm. The heat of dilution resulting from injecting the nucleotide into the assay buffer was subtracted. The final data were analyzed and curve-fitted with sequential two-site mode by using NanoAnalyze v3.12.5 (TA Instruments).

EfCdnE^W281A = target: T2, EfCdnE^W281A (Enterococcus faecalis, UniProt P0DX98, W281A); experiment: ITC analysis of nucleotide binding to EfCdnE^W281A mutant; details: read-out: dissociation constant (KD)
T2 construct: Full-length gene fragments encoding ClCdnE from Cecembia lonarensis; His6 (C); made in house; host or cells: E. coli BL21 (DE3)
T2 sequence (P0DX98 1-299 W281A): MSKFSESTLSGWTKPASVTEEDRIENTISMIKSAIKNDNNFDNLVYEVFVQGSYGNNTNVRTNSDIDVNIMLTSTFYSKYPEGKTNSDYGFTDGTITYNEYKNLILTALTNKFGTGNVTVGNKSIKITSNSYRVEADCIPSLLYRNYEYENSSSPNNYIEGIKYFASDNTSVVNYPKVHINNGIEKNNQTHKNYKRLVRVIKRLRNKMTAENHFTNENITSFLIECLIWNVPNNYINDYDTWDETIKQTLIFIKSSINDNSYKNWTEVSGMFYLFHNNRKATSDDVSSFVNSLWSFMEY
From the text: (§2) To validate the importance of this motif, we changed Arg279 and Trp281 of EfCdnE to a smaller alanine residue and assessed the substrate specificity and product synthesis of both wild-type and mutant EfCdnE by ITC and LC-MS/MS. […] Based on sequence conservation and structural similarity, it is proposed that the cyclic di-pyrimidine-synthesizing CdnE proteins, including ClCdnE, EfCdnE, and LpCdnE, form smaller donor pockets that act as molecular gauges to recognize and retain the binding of pyrimidine nucleotides but weaken or exclude the binding to purine nucleotides (Fig. 6F). In combination with the conserved Asn residue in the acceptor pocket, the substrate specificity for double pyrimidine was achieved (Fig. 6F).
as §1, with “Titration was carried out by 20 sequential injections of the nucleotide at a concentration of 250 μM at 3-min intervals to 50 μM EfCdnE, with a stirring speed of 300 rpm. The heat of dilution resulting from injecting the nucleotide into the assay buffer was subtracted.” left out

EfCdnE^R279A = target: T3, EfCdnE^R279A (Enterococcus faecalis, UniProt P0DX98, R279A); experiment: ITC analysis of nucleotide binding to EfCdnE^R279A mutant
T3 construct: Full-length gene fragments encoding ClCdnE from Cecembia lonarensis; His6 (C); made in house; host or cells: E. coli BL21 (DE3)
T3 sequence (P0DX98 whole entry R279A, the tested form may be a part): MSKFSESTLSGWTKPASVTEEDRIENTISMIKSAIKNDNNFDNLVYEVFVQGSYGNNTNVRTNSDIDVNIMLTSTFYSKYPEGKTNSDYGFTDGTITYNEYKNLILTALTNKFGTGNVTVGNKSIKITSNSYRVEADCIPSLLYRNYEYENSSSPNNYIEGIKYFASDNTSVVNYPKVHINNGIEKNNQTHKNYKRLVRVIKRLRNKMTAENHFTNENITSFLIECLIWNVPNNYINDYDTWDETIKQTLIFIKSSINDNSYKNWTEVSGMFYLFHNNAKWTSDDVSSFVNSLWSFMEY
From the text: as §2
as §1, with “Titration was carried out by 20 sequential injections of the nucleotide at a concentration of 250 μM at 3-min intervals to 50 μM EfCdnE, with a stirring speed of 300 rpm. The heat of dilution resulting from injecting the nucleotide into the assay buffer was subtracted.” left out

[1] = dissociation constant (KD), second of two binding sites, ITC, wild-type EfCdnE, sequential two-site fit, second-named site (acceptor pocket for UMPnPP)

Structure (SMILES)	binding to EfCdnE (in words) (EfCdnE; ITC, wild-type EfCdnE)	Kd (EfCdnE^W281A) [nM]	binding affinity, dissociation constant (in words) (EfCdnE^R279A)	Kd (EfCdnE) [nM]	binding to EfCdnE pre-incubated with UMPnPP (in words) (EfCdnE; ITC, EfCdnE pre-incubated with UMPnPP)	Kd (EfCdnE; [1]) [nM]
Nc1ncnc2c1ncn2[C@@H]1O[C@H](COP(=O)(O)CP(=O)(O)OP(=O)(O)O)[C@@H](O)[C@H]1O [AMPcPP]	No binding; also recorded: too weak to be detected	35000				
Nc1ncnc2c1ncn2[C@@H]1O[C@H](COP(=O)(O)OP(=O)(O)OP(=O)(O)O)[C@@H](O)[C@H]1O [ATP]	did not		near micromolar			
Nc1ccn([C@@H]2O[C@H](COP(=O)(O)CP(=O)(O)OP(=O)(O)O)[C@@H](O)[C@H]2O)c(=O)n1 [CMPcPP]				18.7	no binding; also recorded: did not bind	1270
Nc1nc2c(ncn2[C@@H]2O[C@H](COP(=O)(O)CP(=O)(O)OP(=O)(O)O)[C@@H](O)[C@H]2O)c(=O)[nH]1 [GMPcPP]	No binding; also recorded: too weak to be detected	65000				
Nc1nc2c(ncn2[C@@H]2O[C@H](COP(=O)(O)OP(=O)(O)OP(=O)(O)O)[C@@H](O)[C@H]2O)c(=O)[nH]1 [GTP]	did not		near micromolar			
O=c1ccn([C@@H]2O[C@H](COP(=O)(O)NP(=O)(O)OP(=O)(O)O)[C@@H](O)[C@H]2O)c(=O)[nH]1 [UMPnPP]				14.7		980
